The results in this text go back to patent publication EP4477653A1 (Perha Pharmaceuticals, priority 2023, dated 2024).

Where only a bound is given, the exact number is not on record here.

The assay addresses T1, human recombinant A3AR (expressed in HEK-293 cells) (Homo sapiens, UniProt P0DMS8).
T1 construct: host or cells: HEK-293 cells
T1 sequence (P0DMS8 1-318): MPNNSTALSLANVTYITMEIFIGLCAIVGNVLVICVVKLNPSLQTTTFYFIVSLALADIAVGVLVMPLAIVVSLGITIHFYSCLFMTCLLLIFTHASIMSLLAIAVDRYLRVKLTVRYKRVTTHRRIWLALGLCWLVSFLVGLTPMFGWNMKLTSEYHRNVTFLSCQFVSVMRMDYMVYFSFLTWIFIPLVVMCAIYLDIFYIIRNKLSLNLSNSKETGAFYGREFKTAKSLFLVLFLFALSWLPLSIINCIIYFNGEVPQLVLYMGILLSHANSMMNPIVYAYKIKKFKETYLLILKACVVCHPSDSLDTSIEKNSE
Description: Adenosine receptors antagonism assay (Eurofins), [125I]-AB-MECA radioligand competition. In kind it is binding. Conditions: [125I]-AB-MECA 0.15 nM, r.t., 120 min; IC50 from dose-response curves; read-out: Potency Class A3AR. A general note: Loss of bound radioactivity is the signal in a displacement assay; it reports binding, not function.
Description: Assays were carried out at r.t. for 120 min. Compounds were initially tested at three concentrations (0.01, 0.1, 1 µM). […] IC50 values, which is the concentration causing a half-maximal inhibition of control specific binding, and Hill coefficients (nH) were determined by non-linear regression analysis of the competition curves generated with mean replicate values using Hill equation curve fitting. The inhibition constants (Ki) were calculated using the Cheng Prusoff equation.
As for `CCC(CC)Nc1cc(NCCCc2cccnc2)c2nnc(C(C)C)n2n1` [compound 90, N6-(1-ethylpropyl)-3-isopropyl-N8-[3-(3-pyridyl)propyl]-[1,2,4]triazolo[4,3-b]pyridazine-6,8-diamine], the IC50 is 1 to 10 nM.

Regarding `CCC(CC)Nc1cc(NCc2ccccn2)c2nnc(CC(C)C)n2n1` [compound 69, N6-(1-ethylpropyl)-3-isobutyl-N8-(2-pyridylmethyl)-[1,2,4]triazolo[4,3-b]pyridazine-6,8-diamine], the IC50 lay within 10 to 100 nM.

As for `CCC(CC)Nc1cc(Nc2cccc(OC)n2)c2nnc(C3CC3)n2n1` [compound 183, 3-cyclopropyl-N8-(6-methoxypyridin-2-yl)-N6-(pentan-3-yl)-[1,2,4]triazolo[4,3-b]pyridazine-6,8-diamine], the IC50 is below 1 nM.

With `CC[C@H](CO)Nc1cc(N[C@H](CC)CO)c2nnc(C(C)C)n2n1` [compound 113, (2R)-2-[[6-[[(1R)-1-(hydroxymethyl)propyl]amino]-3-isopropyl-[1,2,4]triazolo[4,3-b]pyridazin-8-yl]amino]butan-1-ol], the IC50 lay within 100 to 1000 nM.

Turning to `CC[C@H](CO)Nc1cc(NCc2ccccc2)c2nnc(C(F)(F)F)n2n1` [compound 37, (2R)-2-[[8-(benzylamino)-3-(trifluoromethyl)-[1,2,4]triazolo[4,3-b]pyridazin-6-yl]amino]butan-1-ol], the IC50 lay within 10 to 100 nM.

As to `CCC(CC)Nc1cc(NCc2ccccn2)c2nnc(C(CC)CC)n2n1` [compound 68, N6,3-bis(1-ethylpropyl)-N8-(2-pyridylmethyl)-[1,2,4]triazolo[4,3-b]pyridazine-6,8-diamine], the IC50 lay within 1 to 10 nM.

Consider `CC(C)c1nnc2c(NCc3ccccc3)cc(NCCCCCO)nn12` [compound 15, 5-[[8-(benzylamino)-3-isopropyl-[1,2,4]triazolo[4,3-b]pyridazin-6-yl]amino]pentan-1-ol], for which the IC50 was in the range of 100 to 1000 nM.

Turning to `CCC(CC)Nc1cc(NCc2ccccn2)c2nnc(C(C)C)n2n1` [compound 51, N6-(1-ethylpropyl)-3-isopropyl-N8-(2-pyridylmethyl)-[1,2,4]triazolo[4,3-b]pyridazine-6,8-diamine], the IC50 lay in the range of 1 to 10 nM.

In the case of `CCC(CC)Nc1cc(NC(=O)c2ccccn2)c2nnc(C(C)C)n2n1` [compound 97, N-[6-(1-ethylpropylamino)-3-isopropyl-[1,2,4]triazolo[4,3-b]pyridazin-8-yl]pyridine-2-carboxamide], the IC50 is 10 to 100 nM.

For the compound `CCC(CC)Nc1cc(NCCc2ccccn2)c2nnc(C3CC3)n2n1` [compound 86, 3-cyclopropyl-N6-(1-ethylpropyl)-N8-[2-(2-pyridyl)ethyl]-[1,2,4]triazolo[4,3-b]pyridazine-6,8-diamine], the IC50 is below 1 nM.

For `CCC(CC)Nc1cc(NC(CC)CC)c2nnc(C(C)C)n2n1` [compound 114, N6,N8-bis(1-ethylpropyl)-3-isopropyl-[1,2,4]triazolo[4,3-b]pyridazine-6,8-diamine], the IC50 lay within 1 to 10 nM.

Consider `CCC(CC)Nc1cc(Nc2ccccc2)c2nnc(C(C)C)n2n1` [compound 45, N6-(1-ethylpropyl)-3-isopropyl-N8-phenyl-[1,2,4]triazolo[4,3-b]pyridazine-6,8-diamine], for which the IC50 lay in the range of 1 to 10 nM.

Regarding `CCC(CC)Nc1cc(Nc2ccncn2)c2nnc(C(C)C)n2n1` [compound 150, 3-isopropyl-N6-(pentan-3-yl)-N8-(pyrimidin-4-yl)-[1,2,4]triazolo[4,3-b]pyridazine-6,8-diamine], the IC50 was below 1 nM.

For the compound `COCCCNc1cc(NCc2ccccc2)c2nnc(C(C)C)n2n1` [compound 10, N8-benzyl-3-isopropyl-N6-(3-methoxypropyl)-[1,2,4]triazolo[4,3-b]pyridazine-6,8-diamine], the IC50 was in the range of 10 to 100 nM.

For `COCCCNc1cc(NCc2ccccc2)c2nnc(-c3ccccc3)n2n1` [compound 34, N8-benzyl-N6-(3-methoxypropyl)-3-phenyl-[1,2,4]triazolo[4,3-b]pyridazine-6,8-diamine], the IC50 is 100 to 1000 nM.

`CC(=O)NCCCNc1cc(NCc2ccccc2)c2nnc(C(C)C)n2n1` [compound 24, N-[3-[[8-(benzylamino)-3-isopropyl-[1,2,4]triazolo[4,3-b]pyridazin-6-yl]amino]propyl]acetamide]: the IC50 lay within 100 to 1000 nM.

With `CCC(CC)Nc1cc(NCc2cccnc2)c2nnc(C(C)C)n2n1` [compound 50, N6-(1-ethylpropyl)-3-isopropyl-N8-(3-pyridylmethyl)-[1,2,4]triazolo[4,3-b]pyridazine-6,8-diamine], the IC50 is 1 to 10 nM.

Consider `CCNc1cc(NCc2ccccn2)c2nnc(C3CC3)n2n1` [compound 189, 3-cyclopropyl-N6-ethyl-N8-(2-pyridylmethyl)-[1,2,4]triazolo[4,3-b]pyridazine-6,8-diamine], for which the IC50 fell in the range of 10 to 100 nM.

`CCC(CC)Nc1cc(Nc2cnccn2)c2nnc(C(C)C)n2n1` [compound 153, 3-isopropyl-N6-(pentan-3-yl)-N8-(pyrazin-2-yl)-[1,2,4]triazolo[4,3-b]pyridazine-6,8-diamine]: the IC50 was below 1 nM.

In the case of `CC[C@H](CO)Nc1cc(NCc2ccccc2)c2nnc(C(C)C)n2n1` [compound 1, (2R)-2-[[8-(benzylamino)-3-isopropyl-[1,2,4]triazolo[4,3-b]pyridazin-6-yl]amino]butan-1-ol], the IC50 was 10 to 100 nM.

In the case of `CCC(CC)Nc1cc(NCCc2ccncc2)c2nnc(C(C)C)n2n1` [compound 85, N6-(1-ethylpropyl)-3-isopropyl-N8-[2-(4-pyridyl)ethyl]-[1,2,4]triazolo[4,3-b]pyridazine-6,8-diamine], the IC50 fell in the range of 1 to 10 nM.

As for `CCC(CC)Nc1cc(NCc2ccccn2)c2nnc(C(C)CC)n2n1` (stereo not drawn) [compound 67, N6-(1-ethylpropyl)-N8-(2-pyridylmethyl)-3-sec-butyl-[1,2,4]triazolo[4,3-b]pyridazine-6,8-diamine], the IC50 lay within 1 to 10 nM.

As for `CCC(CC)Nc1cc(NCc2ccccn2)c2nncn2n1` [compound 57, N6-(1-ethylpropyl)-N8-(2-pyridylmethyl)-[1,2,4]triazolo[4,3-b]pyridazine-6,8-diamine], the IC50 lay within 100 to 1000 nM.

Take `CCc1nnc2c(NCc3ccccn3)cc(NC(CC)CC)nn12` [compound 59, 3-ethyl-N6-(1-ethylpropyl)-N8-(2-pyridylmethyl)-[1,2,4]triazolo[4,3-b]pyridazine-6,8-diamine]: the IC50 was in the range of 1 to 10 nM.

`CCC(CC)Nc1cc(NCCCc2ccccn2)c2nnc(C(C)C)n2n1` [compound 89, N6-(1-ethylpropyl)-3-isopropyl-N8-[3-(2-pyridyl)propyl]-[1,2,4]triazolo[4,3-b]pyridazine-6,8-diamine]: the IC50 lay in the range of 10 to 100 nM.

On to `CCC(CC)Nc1cc(Nc2ncccn2)c2nnc(C(C)C)n2n1` [compound 152, 3-isopropyl-N6-(pentan-3-yl)-N8-(pyrimidin-2-yl)-[1,2,4]triazolo[4,3-b]pyridazine-6,8-diamine], for which the IC50 was 10 to 100 nM.

In the case of `CCC(CC)Nc1cc(NCc2ccccc2)c2nnc(C(C)C)n2n1` [compound 18, N8-benzyl-N6-(1-ethylpropyl)-3-isopropyl-[1,2,4]triazolo[4,3-b]pyridazine-6,8-diamine], the IC50 was in the range of 1 to 10 nM.

On to `CC[C@@H](CO)Nc1cc(NCc2ccccc2)c2nnc(C(C)C)n2n1` [compound 2, (2S)-2-[[8-(benzylamino)-3-isopropyl-[1,2,4]triazolo[4,3-b]pyridazin-6-yl]amino]butan-1-ol], for which the IC50 was 10 to 100 nM.

For the compound `CCC(CC)Nc1cc(NCc2cnccn2)c2nnc(C(C)C)n2n1` [compound 94, N6-(1-ethylpropyl)-3-isopropyl-N8-(pyrazin-2-ylmethyl)-[1,2,4]triazolo[4,3-b]pyridazine-6,8-diamine], the IC50 was in the range of 1 to 10 nM.

Regarding `c1ccc(CNc2cc(NCc3ccco3)nn3c(C4CC4)nnc23)nc1` [compound 208, 3-cyclopropyl-N6-(furan-2-ylmethyl)-N8-(pyridin-2-ylmethyl)-[1,2,4]triazolo[4,3-b]pyridazine-6,8-diamine], the IC50 was in the range of 1 to 10 nM.

In the case of `CCC(CC)Nc1cc(Nc2cncnc2)c2nnc(C(C)C)n2n1` [compound 151, 3-isopropyl-N6-(pentan-3-yl)-N8-(pyrimidin-5-yl)-[1,2,4]triazolo[4,3-b]pyridazine-6,8-diamine], the IC50 was below 1 nM.

As to `CC[C@@H](CO)Nc1cc(NCc2ccccn2)c2nnc(C3CC3)n2n1` [compound 212, (S)-2-((3-cyclopropyl-8-((pyridin-2-ylmethyl)amino)-[1,2,4]triazolo[4,3-b]pyridazin-6-yl)amino)butan-1-ol], the IC50 lay within 10 to 100 nM.

In the case of `CCC(CC)Nc1cc(NC(=O)Cc2ccccc2)c2nnc(C(C)C)n2n1` [compound 98, N-[6-(1-ethylpropylamino)-3-isopropyl-[1,2,4]triazolo[4,3-b]pyridazin-8-yl]-2-phenyl-acetamide], the IC50 is below 1 nM.

Consider `c1ccc(CNc2cc(NC3CC4(CCC4)C3)nn3c(C4CC4)nnc23)nc1` [compound 205, 3-cyclopropyl-N8-(pyridin-2-ylmethyl)-N6-(spiro[3.3]heptan-2-yl)-[1,2,4]triazolo[4,3-b]pyridazine-6,8-diamine], for which the IC50 was in the range of 1 to 10 nM.

As for `CC[C@@H](CO)Nc1cc(NCc2ccc(-c3ccncc3)cc2)c2nnc(C(C)C)n2n1` [compound 103, (2S)-2-[[3-isopropyl-8-[[4-(4-pyridyl)phenyl]methylamino]-[1,2,4]triazolo[4,3-b]pyridazin-6-yl]amino]butan-1-ol], the IC50 lay in the range of 10 to 100 nM.

Regarding `CC(C)c1nnc2c(NCc3ccccc3)cc(NCCOCCOCCN)nn12` [compound 8, N6-[2-[2-(2-aminoethoxy)ethoxy]ethyl]-N8-benzyl-3-isopropyl-[1,2,4]triazolo[4,3-b]pyridazine-6,8-diamine], the IC50 is 100 to 1000 nM.
